pIC50: −log10 of the molar value. Where two headings read alike, the source gives them in different places.
Assays:
S1-M1 cells = assay: MTS cytotoxicity test with S1-M1 cells (MXR); type: cell-based, human; settings: for pIC50: Homo sapiens, read-out: IC50 S1-M1; for Ratio: IC50 on S1-M1 cells/IC50 on S1 cells
Source text: Human cancer cell lines, unless otherwise noted, are obtained from the American Type Culture Collection (Rockville, Md.). The following drug-sensitive parental cell lines, and their derived drug-resistant counterparts, are obtained from the originators as listed: (a) S1 (parental line from a subclone of human colon carcinoma line LS174T) and derived S1-M1-3.2 (herein called S1-M1) which expresses the MXR drug transporter protein, are provided by Dr. L. Greenberger, Wyeth Research (Rabindran, S. K., He, H., Singh, M., Brown, E., Collins, K. I., Annable, T., and Greenberger, L. M. Reversal of a novel multidrug resistance mechanism in human colon carcinoma cells by fumitremorgin C. Cancer Res., 58:5850-5858,1998); (b) parental HL-60 human promyelocytic leukemia line and derived HL-60/ADR, which expresses the MRP1 drug transporter protein, are provided by Dr. M. Center, University of Kansas (McGrath, T., and Center, M. S. Adriamycin resistance in HL60 cells in the absence of detectable P-glycoprotein. Biochem. Biophys. […] J. Biol. Chem., 261: 7762-7770,1986) via Dr. L. Greenberger, Wyeth Research.
The assay, which is sold in kit form by Promega (Madison, Wis.; CellTiter 96 AQueous Non-Radioactive Cell Proliferation Assay), is based on the conversion by viable cells, but not by dead cells, of the tetrazolium salt, MTS (3-(4,5-dimethylthiazol-2-yl)-5-(3-carboxymethoxyphenyl)-2-(4-sulphophenyl)-2H-tetrazolium, inner salt), into a water-soluble colored formazan which is detected by spectrophotometry. Compounds are tested at nine concentrations, in order to determine IC50 values. For the test procedure, cells are harvested by trypsinization (or, in the case of non-adherent cells, by simple resuspension), washed, counted and distributed to wells of 96-well flat-bottom microtiter plates at 1000 cells per well in 200 μL of medium. In addition, one row of wells on a separate plate received cells as above (“time 0” plate). All plates are incubated at 37° in humidified 5% CO2 in air for about 24 hr.
On day 2, compounds for test are diluted and added to wells. Compounds are dissolved in DMSO at 10 mg/mL. For each compound, nine serial 2-fold dilutions are prepared in DMSO. Ten μL of each dilution in DMSO is transferred to 100 μL of medium, mixed well, and then 5 μL of this dilution is transferred in quadruplicate to wells containing cells. […] Plates are returned to the incubator for three days. At the time of drug addition to the experimental plates, the MTS assay is run on the “time 0” plate. This produced the “time 0 MTS value” which is related to the number of viable cells per well at the time of drug addition.
After three days of culture with test compounds (day 5 overall), the MTS assay is done on all wells of the experimental plates. The absorbance values of the quadruplicate sample wells are averaged and divided by the average of the “time 0” values. […] The nine values for each compound are plotted against concentration, and the concentration that produced a relative color yield half way between the maximum and minimum is taken as the IC50 value.
S1-M1 cells overexpress the MXR transporter which mediates resistance to some chemotherapeutics (Gottesman, M. M., Fojo, T., and Bates, S. E. Miltidrug resistance in cancer: role of ATP-dependent transporters. Nature Rev. Cancer, 2: 48-58, 2002). The IC50 values of representative examples of this invention, as well as reference compounds, on S1-M1 are compared to values on the sensitive parental S1 line.

pure tubulin = assay: Tubulin polymerization test with pure tubulin without GTP; type: biochemical, bovine; settings: no GTP
Experimental: Medium is RPMI-1640 with L-glutamine, supplemented with 10% heat-inactivated fetal calf serum, 100 units/ml penicillin, and 100 μg/ml streptomycin (Gibco, Grand Island, N.Y.). Microtubule-associated protein (MAP)-rich tubulin, containing about 70% tubulin and 30% MAPs (#ML113), and highly purified tubulin (>99% pure, #TL238), both from bovine brain, are obtained from Cytoskeleton, Inc., Denver, Colo. PEM buffer (80 mM piperazine-N,N′-bis[2-ethanesulfonic acid], pH 6.9, 1 mM ethylene glycol-bis(β-aminoethyl ether)-N,N,N′,N′-tetraacetic acid, 1 mM magnesium chloride) and guanosine 5′-triphosphate (GTP) are also obtained from Cytoskeleton. [3H]paclitaxel, specific activity 14.7 Ci/mmol, is purchased from Moravek Biochemicals (Brea, Calif.). [^3H]vinblastine, specific activity 9.60 Ci/mmol and MicroSpin G-50 columns are obtained from Amersham Biosciences (Piscataway, N.J.). […] Other reagents are obtained from Sigma (St. Louis, Mo.).
Two variations of this procedure are done, one using MAP-rich tubulin and one using pure tubulin.
The procedure with pure tubulin is similar except for the following changes. […] The supernatant after centrifugation is dispensed to a 96-well plate already containing compounds. Each compound is tested in duplicate at six serial 3-fold dilutions starting at 24.3 μM. The plate reader is thermostated at 35°.

COLO 205 cells = assay: MTS cytotoxicity test with COLO 205 cells; type: cell-based, human; settings: 3 days
Method in brief: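 COLO 205 human colon carcinoma cells, 1000 per well, exposed 3 days at 37° C to nine 2-fold dilutions, typical final top concentration 5 μM. MTS absorbance normalized to time-0 plate; IC50 is concentration giving colour yield midway between untreated and fully killed controls.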

Row | Structure (SMILES) | pIC50 (S1-M1 cells; S1-M1 cells, MTS) | Ratio (S1-M1 cells) | absorbance increase, polymerization of pure tubulin (pure tubulin; 2.7 μM) | absorbance increase, polymerization of pure tubulin (pure tubulin; 8.1 μM) | A340 at 0 min (pure tubulin; 24.3 μM) | A340 at 5 min (pure tubulin; 24.3 μM) | A340 at 10 min (pure tubulin; 24.3 μM) | A340 at 15 min (pure tubulin; 24.3 μM) | A340 at 20 min (pure tubulin; 24.3 μM) | absorbance increase, polymerization of pure tubulin (pure tubulin; 24.3 μM, first 5 min) | pIC50 (COLO 205 cells; Homo sapiens, COLO 205, 72 h) | pIC50 (S1-M1 cells) | pIC50 (COLO 205 cells)
1 | C[C@H](Nc1c(-c2c(F)cc(OCCCN(C)C)cc2F)c(Cl)nc2ncnn12)C(F)(F)F.Cl [Example 1a, 5-chloro-6-{4-[3-(dimethylamino)propoxy]-2,6-difluorophenyl}-N-[(1S)-2,2,2-trifluoro-1-methylethyl][1,2,4]triazolo[1,5-a]pyrimidin-7-amine hydrogen chloride Salt] | 7.12 | 1.0 | no effect | lower and less rapid increase | 0 | 0.22 | 0.23 | 0.22 | 0.21 | rapid increase in absorbance | 7.25 |  | 
2 | CNCCCOc1cc(F)c(-c2c(Cl)nc3ncnn3c2N[C@@H](C)C(F)(F)F)c(F)c1.Cl [Example 2a, 5-Chloro-6-{2,6-difluoro-4-[3-(methylamino)propoxy]phenyl}-N-[(1S)-2,2,2-trifluoro-1-methylethyl][1,2,4]triazolo[1,5-a]pyrimidin-7-amine hydrogen chloride] |  | 1.0 | no effect | lower and less rapid increase | 0 | 0.25 | 0.24 | 0.23 | 0.22 | rapid increase in absorbance |  | 7.16 | 7.51
3 | CNCCCOc1cc(F)c(-c2c(Cl)nc3ncnn3c2NCC(F)(F)F)c(F)c1.Cl [Example 3a, 5-Chloro-6-{2,6-difluoro-4-[3-(methylamino)propoxy]phenyl}-N-(2,2,2-trifluoroethyl)[1,2,4]triazolo[1,5-a]pyrimidin-7-amine hydrogen chloride Salt] | 7.15 | 1.2 | no effect | lower and less rapid increase | 0 | 0.19 | 0.20 | 0.20 | 0.20 | rapid increase in absorbance |  |  | 7.54
4 | CN(C)CCCOc1cc(F)c(-c2c(Cl)nc3ncnn3c2NCC(F)(F)F)c(F)c1.Cl [Example 4a, 5-Chloro-6-{4-[3-(dimethylamino)propoxy]-2,6-difluorophenyl}-N-(2,2,2-trifluoroethyl)[1,2,4]triazolo[1,5-a]pyrimidin-7-amine Hydrogen chloride Salt] | 7.14 | 1.0 | no effect | lower and less rapid increase | 0 | 0.14 | 0.16 | 0.16 | 0.15 | rapid increase in absorbance | 7.28 |  | 
5 | C[C@H](Nc1c(-c2c(F)cc(OCCCO)cc2F)c(Cl)nc2ncnn12)C(F)(F)F [Example 20, 3-[4-(5-Chloro-7-{[(1S)-2,2,2-trifluoro-1-methylethyl]amino}[1,2,4]triazolo[1,5-a]pyrimidin-6-yl)-3,5-difluorophenoxy]propan-1-ol] | 7.04 | 1.1 |  |  | 0 | 0.03 | 0.03 | 0.03 | 0.03 |  | 7.17 |  | 
6 | C[C@H](Nc1c(-c2c(F)cc(OCCCN(C)C)cc2F)c(Br)nc2ncnn12)C(F)(F)F [Example 25, 5-Bromo-6-{4-[3-(dimethylamino)propoxy]-2,6-difluorophenyl}-N-[(1S)-2,2,2-trifluoro-1-methylethyl][1,2,4]triazolo[1,5-a]pyrimidin-7-amine] | 7.08 | 0.80 | no effect | lower and less rapid increase | 0 | 0.22 | 0.23 | 0.22 | 0.22 | rapid increase in absorbance | 7.02 |  | 
7 | OCCCOc1cc(F)c(-c2c(Cl)nc3ncnn3c2C2CCCCCC2)c(F)c1 [Example 30, 3-[4-(5-Chloro-7-cycloheptyl[1,2,4]triazolo[1,5-a]pyrimidin-6-yl)-3,5-difluorophenoxy]propan-1-ol] | 7.11 | 1.2 |  |  | 0 | 0.02 | 0.01 | 0.01 | 0.01 |  | 7.52 |  | 
8 | CNCCCOc1cc(F)c(-c2c(Cl)nc3ncnn3c2C2CCCCCC2)c(F)c1.O=C(O)C(F)(F)F [Example 32, 3-[4-(5-Chloro-7-cycloheptyl[1,2,4]triazolo[1,5-a]pyrimidin-6-yl)-3,5-difluorophenoxy]-N-methylpropan-1-amine trifluoroacetic acid salt] | 8.05 | 0.80 | no effect | lower and less rapid increase | 0 | 0.26 | 0.26 | 0.25 | 0.25 | rapid increase in absorbance | 8.18 |  | 
9 | CC(=O)O[C@H]1C(=O)[C@@]2(C)[C@H]([C@H](OC(=O)c3ccccc3)[C@]3(O)C[C@H](OC(=O)[C@H](O)[C@@H](NC(=O)c4ccccc4)c4ccccc4)C(C)=C1C3(C)C)[C@]1(OC(C)=O)CO[C@@H]1C[C@@H]2O [Paclitaxel, reference compound] | 8.36 | 0.54 |  |  | 0 | 0 | 0 | 0.01 | 0.01 |  | 8.48 |  | 
